Columns and labels:
LPS induced cytokines = assay: LPS induced cytokine production in PBMCs; assay type: cell-based, human
Method: (§1) These experiments were conducted using PBMCs.

[1] = system: TL2/TLR6 (PAM2CSK4 induced cytokines); assay: PAM2CSK4 induced cytokine production in PBMCs; assay type: cell-based, human
Method: as §1

[2] = system: female C.B-17 SCID mice injected with CD45RBhigh cells; assay: CD4+ Inflammatory Bowel Disease (IBD) model in SCID mice; assay type: in vivo, mouse
Method: In this murine model, female C.B-17 SCID mice are injected intraperitoneally (IP) with CD45RB^high cells, a subset of CD4^+ T cells obtained from normal BALB/c mice, to induce spontaneous chronic inflammation in the large intestine. Gross and histopathologic changes resulting from this treatment resemble those occurring in Crohn's disease and ulcerative colitis in humans.
On study day 0, Balb/C mice were terminated, and spleens were obtained for CD45RB^high cell isolation per the SCID IBD cell separation protocol. SCID mice were weighed and received intraperitoneal (IP) injections of the sorted cells (approx. 4×10^6 cells/ml, 100 μl/mouse injections). On study day 21, mice were weighed and randomized by body weight loss into treatment groups, and daily (QD), oral (PO) dosing was initiated. Dosing continued through study day 41, and mice were terminated on day 42.
For each animal, the entire colon (proximal and distal) was trimmed into 8 equally spaced pieces for processing and embedding. Sections were stained with hemotoxylin and eosin (H&E). For each H&E stained section, submucosal edema was quantitated by measuring the distance from the muscularis mucosa to the internal border of the outer muscle layer in a non tangential area thought to most represent the severity of this change. Mucosal thickness was also measured in a non-tangential area of the section that best represented the overall mucosal thickness. This parameter is indicative of gland elongation and mucosal hyperplasia.
Parameters that were scored using percent involvement included: (1) Colon glandular epithelial loss—this includes crypt epithelial as well as remaining gland epithelial loss; and (2) Colon Erosion—this reflects loss of surface epithelium and generally is associated with mucosal hemorrhage (reflective of the bleeding seen clinically and at necropsy).
The 4 important scored parameters (inflammation, glandular epithelial loss, erosion, hyperplasia) were ultimately summed to arrive at a sum of histopathology scores, which indicates the overall damage and would have a maximum score of 20.
Inflammatory cell infiltrates in the colonic mucosa were evaluated for approximate % of neutrophils in the total infiltrate using the criteria below.
This value was then multiplied by the inflammation score in an attempt to semiquantify relative PMN infiltration across sections and animals.

[3] = system: Human T-cell proliferation; assay: Human T-cell proliferation; assay type: cell-based

C[C@H](Nc1ncnc2[nH]cnc12)c1cc2cccc(Cl)c2c(=O)n1-c1ccccc1 [Compound 292]
LPS induced IL-1 production (LPS induced cytokines): enhanced | LPS induced IL-6 production (LPS induced cytokines): enhanced | LPS induced IL-8 production (LPS induced cytokines): did not detectably affect | LPS induced TNF-α production (LPS induced cytokines): enhanced | PAM2CSK4 induced IL-1 production [1]: Inhibited | PAM2CSK4 induced IL-6 production [1]: Inhibited | PAM2CSK4 induced IL-8 production [1]: Inhibited | PAM2CSK4 induced TNF-α production [1]: Inhibited | Colon hyperplasia reduction ([2]; 1 mg/kg PO QD, total colon): 32% | Mucosal thickness reduction ([2]; 1 mg/kg PO QD, total colon): 31% | Colon weight reduction toward normal ([2]; 1 mg/kg PO QD, vs vehicle): 34% | Colon inflammation reduction ([2]; 3 mg/kg PO QD, distal colon): 42% | Gland loss reduction ([2]; 3 mg/kg PO QD, distal colon): 52% | Hyperplasia reduction ([2]; 3 mg/kg PO QD, distal colon): 61% | Mucosal thickness reduction ([2]; 3 mg/kg PO QD, distal colon): 64% | Neutrophil score reduction ([2]; 3 mg/kg PO QD, distal colon): 66% | PMN percent reduction ([2]; 3 mg/kg PO QD, distal colon): 56% | Summed histopathology score reduction ([2]; 3 mg/kg PO QD, distal colon): 52% | Colon inflammation reduction ([2]; 3 mg/kg PO QD, proximal colon): 19% | Gland loss reduction ([2]; 3 mg/kg PO QD, proximal colon): 24% | Hyperplasia reduction ([2]; 3 mg/kg PO QD, proximal colon): 37% | Mucosal thickness reduction ([2]; 3 mg/kg PO QD, proximal colon): 36% | Neutrophils score reduction ([2]; 3 mg/kg PO QD, proximal colon): 43% | PMN percent reduction ([2]; 3 mg/kg PO QD, proximal colon): 39% | Summed histopathology score reduction ([2]; 3 mg/kg PO QD, proximal colon): 28% | Colon hyperplasia reduction ([2]; 3 mg/kg PO QD, total colon): 49% | Colon inflammation reduction ([2]; 3 mg/kg PO QD, total colon): 30% | Gland loss reduction ([2]; 3 mg/kg PO QD, total colon): 38% | Mucosal thickness reduction ([2]; 3 mg/kg PO QD, total colon): 51% | Neutrophil score reduction ([2]; 3 mg/kg PO QD, total colon): 54% | PMN percent reduction ([2]; 3 mg/kg PO QD, total colon): 47% | Summed histopathology score reduction ([2]; 3 mg/kg PO QD, total colon): 40% | Colon weight reduction toward normal ([2]; 3 mg/kg PO QD, vs vehicle): 50% | Colon inflammation reduction ([2]; 10 mg/kg PO QD, distal colon): 28% | Colon mucosal thickness reduction ([2]; 10 mg/kg PO QD, distal colon): 46% | Gland loss reduction ([2]; 10 mg/kg PO QD, distal colon): 39% | Hyperplasia reduction ([2]; 10 mg/kg PO QD, distal colon): 46% | Summed histopathology score reduction ([2]; 10 mg/kg PO QD, distal colon): 38% | Colon edema reduction ([2]; 10 mg/kg PO QD, proximal colon): 68% | Colon inflammation reduction ([2]; 10 mg/kg PO QD, proximal colon): 17% | Erosion reduction ([2]; 10 mg/kg PO QD, proximal colon): 94% | Gland loss reduction ([2]; 10 mg/kg PO QD, proximal colon): 26% | Hyperplasia reduction ([2]; 10 mg/kg PO QD, proximal colon): 45% | Mucosal thickness reduction ([2]; 10 mg/kg PO QD, proximal colon): 43% | Neutrophil score reduction ([2]; 10 mg/kg PO QD, proximal colon): 45% | PMN percent reduction ([2]; 10 mg/kg PO QD, proximal colon): 37% | Summed histopathology score reduction ([2]; 10 mg/kg PO QD, proximal colon): 31% | Absolute body weight ([2]; 10 mg/kg PO QD, significant days 27-31, 35, 39, vs vehicle): significantly (by ANOVA) increased | Colon edema reduction ([2]; 10 mg/kg PO QD, total colon): 60% | Colon hyperplasia reduction ([2]; 10 mg/kg PO QD, total colon): 46% | Colon inflammation reduction ([2]; 10 mg/kg PO QD, total colon): 24% | Gland loss reduction ([2]; 10 mg/kg PO QD, total colon): 33% | Mucosal thickness reduction ([2]; 10 mg/kg PO QD, total colon): 45% | Neutrophil score reduction ([2]; 10 mg/kg PO QD, total colon): 44% | PMN percent reduction ([2]; 10 mg/kg PO QD, total colon): 37% | Summed histopathology score reduction ([2]; 10 mg/kg PO QD, total colon): 35% | Colon weight reduction toward normal ([2]; 10 mg/kg PO QD, vs vehicle): 51% | EC50 [3]: 9.5 nM
